Source: patent US20170348258A1, “3-Amino Benzamide Derivative Serving As B-Lactam Auxiliary Antibiotic, Preparation Method and Use Thereof” (THE HONG KONG POLYTECHNIC UNIVERSITY, priority 2014, published 2017)
Converted amounts (≈) assume the structure as drawn. Like-named read-outs stand apart in the source and are kept apart here.

Tests used:
[1] = test system: E. coli; experiment: Antibacterial susceptibility test (MIC, microbroth dilution); assay type: cell-based; details: 18 hours at 37° C., >90% inhibition of bacterial growth
Source text: (§1) The bacterial strains used in microbial susceptibility test were E. coli, S. aureus 29213 and B. subtilis 168. E. coli and S. aureus 29213 were obtained from the laboratory of the Hong Kong Polytechnic University. B. subtilis 168 was purchased from American Type Culture Collection (USA). The mammalian cell lines L929 (mouse peritoneal fibroblast), LCC6 (a wild type breast cancer cell line), LCC6MDR (P-gp over-expressed breast cancer cell line) were stocks in our department. Nutrient Agar, tryptone and yeast extract were purchased from Oxoid Limited (Nepean, Ontario, Canada). Luria-Bertani (LB) medium was prepared from 2 g tryptone, 1 g yeast extract, and 2 g sodium chloride in 200 ml deionized water and sterilized. Müller-Hinton broth (MHB), cation-adjusted Müller-Hinton broth (MHB) and trypticase soy broth (TSB) for microbial susceptibility test were purchased from Becton, Dickinson and Company (New Jersey, USA). A microplate reader (Bio-Rad Laboratories Model 680) is used to measure bacterial growth and cytotoxicity. An Olympus FSX100® Bio Imaging Navigator Microscope was used to observe the morphology of B. subtilis cell.
(§2) The minimum inhibitory concentration (MIC) of each compound was determined using microbroth dilution method according to the National Committee for Clinical Laboratory Standards (CLSI) guidelines. All Compounds were dissolved in DMSO and diluted in a serial two-fold manner. A single colony of bacterial strain on a TSB agar plate was inoculated in 5 mL MHB or CA-MHB. The bacterial cells were incubated at 37° C. until the optimal density (OD600) of the growing cells reached 1.0. The cells were then diluted to a final concentration of approximately 5×10^5 CFU/mL in a serial two-fold manner in a 96-well microtiter plate (Iwaki, Japan). Compound 3 and PC190723 were used as positive controls. […] Table 1 below summarizes the MIC of all synthesized compounds.

[2] = test system: B. subtilis 168; experiment: as above; assay type: cell-based; details: 18 hours at 37° C., >90% inhibition of bacterial growth, read-out: MIC, BS 168
Source text: as §1, §2

[3] = test system: S. aureus 29213; experiment: as above; assay type: cell-based; details: 18 hours at 37° C., >90% inhibition of bacterial growth
Source text: as §1, §2

[4] = test system: MRSA strain USA300#757; experiment: Fractional Inhibitory Concentration Index (FICI) determination; assay type: cell-based, S. aureus
Method: The bacterial strains used in this study were clinically isolated MRSA strains USA300#757 and #2960 which were obtained from our laboratory. Determination of the Fractional Inhibitory Concentration Index (FICI) was adopted by the Müller-Hinton broth (MHB) dilution method as previously described. Twelve serial two-fold dilutions of PC190723, F332 and F361 were prepared in the 96-well microplate with concentration ranging from 512 to 0.25 μg/mL. […] Lastly, the compounds and the β-lactams were mixed at a 1:1 ratio and subjected to two-fold dilution as described previously. Each microplate well contained 100 μL of MHB supplemented with compounds alone, β-lactams alone or the mixture of compounds and β-lactams. Overnight cultures of S. aureus in the Müller-Hinton broth was diluted to OD595 of 0.08-0.1 in saline and added in each of the microplate well. The plates were incubated at 37° C. for 20 h. All tests were performed in duplicate and the inhibition of bacterial growth was determined by visualization. The FICI of compounds and β-lactams were calculated as followed: FICI=(MIC of combination of compound and β-lactam/MIC of compound alone)+(MIC of combination of compound and β-lactam/MIC of β-lactam alone).

[5] = test system: MRSA strain USA300#2960; experiment: as above; assay type: cell-based, S. aureus
Method: The bacterial strains used in this study were clinically isolated MRSA strains USA300#757 and #2960 which were obtained from our laboratory. Determination of the Fractional Inhibitory Concentration Index (FICI) was adopted by the Müller-Hinton broth (MHB) dilution method as previously described. Twelve serial two-fold dilutions of PC190723, F332 and F361 were prepared in the 96-well microplate with concentration ranging from 512 to 0.25 μg/mL. A series of two-fold dilutions of ampicillin, cloxacillin and cefuroxime were also prepared following the same procedure. Lastly, the compounds and the β-lactams were mixed at a 1:1 ratio and subjected to two-fold dilution as described previously. Each microplate well contained 100 μL of MHB supplemented with compounds alone, β-lactams alone or the mixture of compounds and β-lactams. Overnight cultures of S. aureus in the Müller-Hinton broth was diluted to OD595 of 0.08-0.1 in saline and added in each of the microplate well. The plates were incubated at 37° C. for 20 h. All tests were performed in duplicate and the inhibition of bacterial growth was determined by visualization. The FICI of compounds and β-lactams were calculated as followed: FICI=(MIC of combination of compound and β-lactam/MIC of compound alone)+(MIC of combination of compound and β-lactam/MIC of β-lactam alone).

Row | Compound | MIC ([1]; Escherichia coli) [µM] | MIC ([2]; Bacillus subtilis, 168) [µM] | MIC ([3]; Staphylococcus aureus, 29213) [µM] | MIC [1] [µM] | MIC [2] [µM] | MIC [3] [µM] | further results
1 | CCCCCC/C=C\CNc1ccc(F)c(C(N)=O)c1F [Compound F370, (Z)-2,6-difluoro-3-(2-nonenylamino)benzamide] | > 100 | 6.25 (≈ 1.85 µg/mL) | 25 (≈ 7.41 µg/mL) | – | – | – | –
2 | CCCCCCCCCN(C)c1cccc(C(N)=O)c1 [Compound F413, 3-(methyl(nonyl)amino)benzamide] | > 100 | > 100 | > 100 | – | – | – | –
3 | NC(=O)c1c(F)ccc(NCc2ccc(F)cc2F)c1F [Compound F364, 3-((2′,4′-difluorobenzyl)amino)-2,6-difluorobenzamide] | – | – | – | >100 | >100 | >100 | –
4 | CCCCCCCCNc1cccc(C(N)=O)c1 [Compound F412, 3-(octylamino)benzamide] | > 100 | 25 (≈ 6.21 µg/mL) | > 100 | – | – | – | –
5 | CCCCCCCCN(C)c1ccc(F)c(C(N)=O)c1F [Compound F409, 2,6-difluoro-3-(methyl(octyl)amino)benzamide] | > 100 | 25 (≈ 7.46 µg/mL) | 12.5 (≈ 3.73 µg/mL) | – | – | – | –
6 | CCC(C)Oc1cccc(CNc2ccc(F)c(C(N)=O)c2F)c1 (stereo not shown) [Compound F377, 3-((3′-(sec-butoxy)benzyl)amino)-2,6-difluorobenzamide] | – | – | – | >100 | >100 | >100 | –
7 | CCCCOc1cccc(CNc2ccc(F)c(C(N)=O)c2F)c1 [Compound F373, 3-((3′-butoxybenzyl)amino)-2,6-difluorobenzamide] | – | – | – | >100 | 25 (≈ 8.36 µg/mL) | 50 (≈ 16.7 µg/mL) | –
8 | NC(=O)c1c(F)ccc(NCc2ccc(F)c(F)c2)c1F [Compound F362, 3-((3′,4′-difluorobenzyl)amino)-2,6-difluorobenzamide] | – | – | – | >100 | >100 | >100 | –
9 | CCCCOCCCCNc1ccc(F)c(C(N)=O)c1F [Compound F350, 3-((4′-butoxy)butylamino)-2,6-difluorobenzamide] | > 100 | > 100 | > 100 | – | – | – | –
10 | NC(=O)c1c(F)ccc(N(Cc2ccc(F)c(F)c2)Cc2ccc(F)c(F)c2)c1F [Compound F363, 3-(bis(3′,4′-difluorobenzyl)amino)-2,6-difluorobenzamide] | – | – | – | >100 | >100 | 50 (≈ 21.2 µg/mL) | –
11 | CCCCCCCCCCNc1ccc(F)c(C(N)=O)c1F [Compound F334, 3-(decylamino)-2,6-difluorobenzamide] | > 100 | > 100 | > 100 | – | – | – | –
12 | CCCCCCCCNc1ccc(F)c(C(N)=O)c1F [Compound F333, 2,6-difluoro-3-(octylamino)benzamide] | > 100 | 6.25 (≈ 1.78 µg/mL) | 50 (≈ 14.2 µg/mL) | – | – | – | –
13 | NC(=O)c1c(F)ccc(N2CCCC2)c1F [Compound F357, 2,6-difluoro-3-(pyrrolidin-1-yl)benzamide] | > 100 | > 100 | > 100 | – | – | – | –
14 | NC(=O)c1c(F)ccc(NCc2c(F)cccc2F)c1F [Compound F366, 3-((2′,6′-difluorobenzyl)amino)-2,6-difluorobenzamide] | – | – | – | >100 | >100 | >100 | –
15 | NC(=O)c1c(F)ccc(N2CCCCC2)c1F [Compound F358, 2,6-difluoro-3-(piperidin-1-yl)benzamide] | > 100 | > 100 | > 100 | – | – | – | –
16 | CCCCCOc1cccc(CNc2ccc(F)c(C(N)=O)c2F)c1 [Compound F376, 2,6-difluoro-3-((3′-(pentyloxy)benzyl)amino)benzamide] | – | – | – | >100 | 12.5 (≈ 4.35 µg/mL) | 50 (≈ 17.4 µg/mL) | –
17 | NC(=O)c1c(F)ccc(N(Cc2c(F)cccc2F)Cc2c(F)cccc2F)c1F [Compound F367, 3-(bis(2′,6′-difluorobenzyl)amino)-2,6-difluorobenzamide] | – | – | – | >100 | >100 | >100 | –
18 | NC(=O)c1c(F)ccc(NCc2cccc(OCc3ccc(C(F)(F)F)cc3)c2)c1F [Compound F378, 2,6-difluoro-3-((3′-((4″-(trifluoromethyl)benzyl)oxy)benzyl)amino)benzamide] | – | – | – | >100 | >100 | >100 | –
19 | NC(=O)c1c(F)ccc(N(Cc2ccc(F)cc2F)Cc2ccc(F)cc2F)c1F [Compound F365, 3-(bis(2′,4′-difluorobenzyl)amino)-2,6-difluorobenzamide] | – | – | – | >100 | <50 | >100 | –
20 | NC(=O)c1c(F)ccc(OCc2nc3cc(Cl)cnc3s2)c1F [PC190723, reference compound] | – | – | – | >2 | 0.5 (≈ 0.178 µg/mL) | 0.5 (≈ 0.178 µg/mL) | FICI with Cefotaxime [4]: 1.02; FICI with Meropenem [4]: 0.31; FICI with Cefotaxime [5]: 1.03; FICI with Meropenem [5]: 0.63
21 | CCCCCCCCN(CC)c1ccc(F)c(C(N)=O)c1F [Compound F410, 3-(ethyl(octyl)amino)-2,6-difluorobenzamide] | > 100 | 25 (≈ 7.81 µg/mL) | 50 (≈ 15.6 µg/mL) | – | – | – | –
22 | CCCCCCCCC(=O)Nc1ccc(F)c(C(N)=O)c1F [Compound F368, 2,6-difluoro-3-nonanamidobenzamide] | > 100 | > 100 | > 100 | – | – | – | –
23 | CC(C)=CCC/C(C)=C/CNc1ccc(F)c(C(N)=O)c1F [Compound F369, (E)-3-((3,7-dimethyl-2,6-octadien-1-yl)amino)-2,6-difluorobenzamide] | > 100 | 50 (≈ 15.4 µg/mL) | > 100 | – | – | – | –
24 | CCCCCCCCCNc1cc(C(N)=O)c(F)cc1F [Compound F345, 2,4-difluoro-5-(nonylamino)benzamide] | > 100 | 100 (≈ 29.8 µg/mL) | > 100 | – | – | – | –
25 | CCCCCCCCCNc1ccc(F)c(C(N)=O)c1 [Compound F342, 2-fluoro-5-(nonylamino)benzamide] | > 100 | 25 (≈ 7.01 µg/mL) | > 100 | – | – | – | –
26 | CCCCCCCCCNc1c(Br)cc(F)c(C(N)=O)c1F [Compound F371, 4-bromo-2,6-difluoro-3-(nonylamino)benzamide] | > 100 | 6.25 (≈ 2.36 µg/mL) | > 100 | – | – | – | –
27 | CCCCCCCCN(C)c1cccc(C(N)=O)c1 [Compound F414, 3-(methyl(octyl)amino)benzamide] | > 100 | > 100 | > 100 | – | – | – | –
28 | CCCCCCCCCNc1cccc(C(N)=O)c1 [Compound F411, 3-(nonylamino)benzamide] | > 100 | 6.25 (≈ 1.64 µg/mL) | > 100 | – | – | – | –
29 | CCCCCCCNc1ccc(F)c(C(N)=O)c1F [Compound F391, 2,6-difluoro-3-(heptylamino)benzamide] | > 100 | 50 (≈ 13.5 µg/mL) | 50 (≈ 13.5 µg/mL) | – | – | – | –
